Results reported in US7563793B2, “Pyrrolo[1,2-a]quinoxalin-5-(4H)-yl)sulfonyls and carbonyls and their use as estrogenic agents” (Wyeth, priority 2004, dated 2009).
Read-outs that look alike come from different tables or passages of the source.

Legend:
ER/Nf-kB = experiment: ER/NF-κB luciferase reporter assay in Ad5-wt-ER infected HAECT-1 cells (IL-1β induced); format: cell-based, human; details: for ER/Nf-kB Efficacy: relative to maximal inhibition observed with E2
Protocol: (§1) After four hours, cells were washed with EBM-BSA and incubated overnight in the same medium. […] After two hours, cells were washed and incubated at 34° C. for 1 hour. […] Control (no ER infection) cells were processed as above without Ad5-wt-hERα virus infection. […] Cells were subsequently washed with 300 μl of Dulbecco's phosphate buffered saline and lysed in 50 μl of Cell Culture Lysis Reagent (Promega). Luciferase was determined on a Wallac Victor^2 Luminometer (Gaithersburg, Md.) using 10 μl of lysate and mixing with 100 lμof Promega Luciferase Assay reagent. […] For IC50 and EC50 calculations, mean IL-6, luciferase or CK values versus log10 of the compound concentration were fitted to a four parameter logistic equation. The IC50/EC50 value, ‘Hill slope’, upper and lower limits of the curve were iteratively estimated.

creatine kinase = experiment: Creatine kinase assay in Ad5-wt-ER infected HAECT-1 cells; format: cell-based, human; details: for CK Efficacy: relative to maximal stimulation observed with E2
Protocol: as §1

CCC1c2cccn2-c2ccc(Br)cc2N1S(=O)(=O)c1ccc(O)c(C)c1 (stereo not shown) [Example 46, 4-[(7-bromo-4-ethylpyrrolo[1,2-a]quinoxalin-5-(4H)-yl)sulfonyl]-2-methylphenol]
IC50 (ER/Nf-kB): 62 nM
ER/Nf-kB Efficacy (ER/Nf-kB): 108%
CK Efficacy (creatine kinase): 43%

CCC1c2ccc(F)n2-c2ccc(Br)cc2N1S(=O)(=O)c1ccc(O)cc1 (stereo not shown) [Example 45, 4-[(7-bromo-4-ethyl-1-fluoropyrrolo[1,2-a]quinoxalin-5-(4H)-yl)sulfonyl]phenol]
IC50 (ER/Nf-kB): 12 nM
ER/Nf-kB Efficacy (ER/Nf-kB): 95%
CK Efficacy (creatine kinase): 53%

CCC1c2cccn2-c2cc(OC)c(F)cc2N1S(=O)(=O)c1ccc(O)cc1 (stereo not shown) [Example 75, 4-[(4-ethyl-7-fluoro-8-methoxypyrrolo[1,2-a]quinoxalin-5-(4H)-yl)sulfonyl]phenol]
IC50 (ER/Nf-kB): 36 nM
ER/Nf-kB Efficacy (ER/Nf-kB): 84%
CK Efficacy (creatine kinase): 46%

C[C@]12CC[C@@H]3c4ccc(O)cc4CC[C@H]3[C@@H]1CC[C@@H]2O [Example E2, 17β-estradiol, reference compound]
IC50 (ER/Nf-kB; Homo sapiens, HAECT1): 1.7 nM
ER/Nf-kB Efficacy (ER/Nf-kB): 100%
EC50 (creatine kinase; Homo sapiens, HAECT1, CK stimulation, N/O = activity not observed at concentrations tested, read-out: CK IC50): 5.8 nM
Emax (creatine kinase; Homo sapiens, HAECT1, relative to maximal stimulation observed with E2, read-out: CK Efficacy): 100%

CCC1c2ccc(F)n2-c2ccc(F)cc2N1S(=O)(=O)c1ccc(O)c(C)c1 (stereo not shown) [Example 28, 4-[(4-ethyl-1,7-difluoropyrrolo[1,2-a]quinoxalin-5-(4H)-yl)sulfonyl]-2-methylphenol]
IC50 (ER/Nf-kB): 52 nM
ER/Nf-kB Efficacy (ER/Nf-kB): 105%
CK Efficacy (creatine kinase): 45%

CCC1c2cccn2-c2ccc(F)cc2N1S(=O)(=O)c1ccc(O)cc1 (stereo not shown) [Example 21, 4-[(4-ethyl-7-fluoropyrrolo[1,2-a]quinoxalin-5-(4H)-yl)sulfonyl]phenol]
IC50 (ER/Nf-kB): 71 nM
ER/Nf-kB Efficacy (ER/Nf-kB): 97%
CK Efficacy (creatine kinase): 38%

CCC1c2cccn2-c2ccc(C(F)(F)F)cc2N1S(=O)(=O)c1ccc(O)c(Cl)c1 (stereo not shown) [Example 61, 2-chloro-4-{[4-ethyl-7-(trifluoromethyl)pyrrolo[1,2-a]quinoxalin-5-(4H)-yl]sulfonyl}phenol]
IC50 (ER/Nf-kB): 10000 nM
ER/Nf-kB Efficacy (ER/Nf-kB): 69%
CK Efficacy (creatine kinase): 15%

CCC1c2cccn2-c2ccc(Br)cc2N1S(=O)(=O)c1ccc(O)cc1 (stereo not shown) [Example 44, 4-[(7-bromo-4-ethylpyrrolo[1,2-a]quinoxalin-5-(4H)-yl)sulfonyl]phenol]
IC50 (ER/Nf-kB): 42 nM
ER/Nf-kB Efficacy (ER/Nf-kB): 97%
CK Efficacy (creatine kinase): 51%

CCC1c2cccn2-c2ccc(Cl)cc2N1S(=O)(=O)c1ccc(O)c(C)c1 (stereo not shown) [Example 68A, 4-[(7-chloro-4-ethylpyrrolo[1,2-a]quinoxalin-5-(4H)-yl)sulfonyl]-2-methylphenol]
IC50 (ER/Nf-kB): 93 nM
ER/Nf-kB Efficacy (ER/Nf-kB): 105%
CK Efficacy (creatine kinase): 49%

CCC1c2cccn2-c2cc(F)c(F)cc2N1S(=O)(=O)c1ccc(O)cc1 (stereo not shown) [Example 7, 4-[(4-ethyl-7,8-difluoropyrrolo[1,2-a]quinoxalin-5-(4H)-yl)sulfonyl]phenol]
IC50 (ER/Nf-kB): 26 nM
ER/Nf-kB Efficacy (ER/Nf-kB): 113%
CK Efficacy (creatine kinase): 37%

CCC1c2cccn2-c2ccccc2N1S(=O)(=O)c1ccc(O)c(C)c1 (stereo not shown) [Example 64, 4-[(4-ethylpyrrolo[1,2-a]quinoxalin-5-(4H)-yl)sulfonyl]-2-methylphenol]
IC50 (ER/Nf-kB): 202 nM
ER/Nf-kB Efficacy (ER/Nf-kB): 89%

CCC1c2cccn2-c2ccc(F)cc2N1S(=O)(=O)c1ccc(O)c(Cl)c1 (stereo not shown) [Example 31, 2-chloro-4-[(4-ethyl-7-fluoropyrrolo[1,2-a]quinoxalin-5-(4H)-yl)sulfonyl]phenol]
IC50 (ER/Nf-kB): 364 nM
ER/Nf-kB Efficacy (ER/Nf-kB): 104%

CC1c2cccn2-c2ccc(F)cc2N1S(=O)(=O)c1ccc(O)cc1 (stereo not shown) [Example 49, 4-[(7-fluoro-4-methylpyrrolo[1,2-a]quinoxalin-5-(4H)-yl)sulfonyl]phenol]
IC50 (ER/Nf-kB): 67 nM
ER/Nf-kB Efficacy (ER/Nf-kB): 85%
CK Efficacy (creatine kinase): 19%

CCOC(=O)Oc1ccc(S(=O)(=O)N2c3c(C)cccc3-n3cccc3C2CC)cc1 (stereo not shown) [Example 66, ethyl 4-[(4-ethyl-6-methylpyrrolo[1,2-a]quinoxalin-5-(4H)-yl)sulfonyl]phenyl carbonate]
IC50 (ER/Nf-kB): 320 nM
ER/Nf-kB Efficacy (ER/Nf-kB): 98%

CCC1c2cccn2-c2cc(F)c(F)cc2N1S(=O)(=O)c1ccc(O)c(C)c1 (stereo not shown) [Example 5, 4-[(4-ethyl-7,8-difluoropyrrolo[1,2-a]quinoxalin-5-(4H)-yl)sulfonyl]-2-methylphenol]
IC50 (ER/Nf-kB): 82 nM
ER/Nf-kB Efficacy (ER/Nf-kB): 99%
CK Efficacy (creatine kinase): 37%

CC1(C)c2cccn2-c2cc(F)c(F)cc2N1S(=O)(=O)c1ccc(O)cc1 [Example 15, 4-[(7,8-difluoro-4,4-dimethylpyrrolo[1,2-a]quinoxalin-5-(4H)-yl)sulfonyl]phenol]
IC50 (ER/Nf-kB): 150 nM
ER/Nf-kB Efficacy (ER/Nf-kB): 105%

CC1(C)c2cccn2-c2ccc(Br)cc2N1S(=O)(=O)c1ccc(O)cc1 [Example 41, 4-[(7-bromo-4,4-dimethylpyrrolo[1,2-a]quinoxalin-5-(4H)-yl)sulfonyl]phenol]
IC50 (ER/Nf-kB): 217 nM
ER/Nf-kB Efficacy (ER/Nf-kB): 109%
CK Efficacy (creatine kinase): 35%

CCC1c2cccn2-c2ccc(F)cc2N1S(=O)(=O)c1cc(C)c(O)c(C)c1 (stereo not shown) [Example 38, 4-[(4-ethyl-7-fluoropyrrolo[1,2-a]quinoxalin-5-(4H)-yl)sulfonyl]-2,6-dimethylphenol]
IC50 (ER/Nf-kB): 201 nM
ER/Nf-kB Efficacy (ER/Nf-kB): 109%
CK Efficacy (creatine kinase): 38%

CCC1c2cccn2-c2cc(Cl)ccc2N1S(=O)(=O)c1ccc(O)cc1 (stereo not shown) [Example 71, 4-[(8-chloro-4-ethylpyrrolo[1,2-a]quinoxalin-5-(4H)-yl)sulfonyl]phenol]
IC50 (ER/Nf-kB): 175 nM
ER/Nf-kB Efficacy (ER/Nf-kB): 101%
CK Efficacy (creatine kinase): 34%

CC1c2cccn2-c2cc(F)c(F)cc2N1S(=O)(=O)c1ccc(O)cc1 (stereo not shown) [Example 10, 4-[(7,8-difluoro-4-methylpyrrolo[1,2-a]quinoxalin-5-(4H)-yl)sulfonyl]phenol]
IC50 (ER/Nf-kB): 14 nM
ER/Nf-kB Efficacy (ER/Nf-kB): 97%
CK Efficacy (creatine kinase): 39%

CC1c2cccn2-c2ccc(Br)cc2N1S(=O)(=O)c1ccc(O)cc1 (stereo not shown) [Example 52, 4-[(7-bromo-4-methylpyrrolo[1,2-a]quinoxalin-5-(4H)-yl)sulfonyl]phenol]
IC50 (ER/Nf-kB): 11 nM
ER/Nf-kB Efficacy (ER/Nf-kB): 100%

CCC1c2cccn2-c2ccc(C(F)(F)F)cc2N1S(=O)(=O)c1ccc(O)cc1 (stereo not shown) [Example 56, 4-{[4-ethyl-7-(trifluoromethyl)pyrrolo[1,2-a]quinoxalin-5-(4H)-yl]sulfonyl}phenol]
IC50 (ER/Nf-kB): 79 nM
ER/Nf-kB Efficacy (ER/Nf-kB): 107%
